Source: patent US8686150B2 (Sanofi, priority 2011, dated 2014)

Molecular target: T1, human full-length recombinant PKC βII (Homo sapiens, UniProt P05771)
T1 construct: Active human full-length recombinant PKC βII; purchased Invitrogen GmbH, Darmstadt, Germany
Experiment: Determination of PKC βII inhibition (Caliper mobility-shift kinase assay, Fluorescein-RFARKGSLRQKNV peptide substrate)
Assay type: biochemical
Details: example compounds at a final concentration of 1.14 μM (±0.15 μM)
Method in brief: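 Full-length PKC βII (30 ng/ml in pre-dilution) with PS/DAG/Ca2+ activators, pH 7.4; fluorescein peptide and ATP at 3 μM and 120 μM before mixing. Reaction ran 60 min at 32 °C, was EDTA-stopped, and was read by mobility shift. % inhibition came from product/(substrate+product) peak heights, tested at 1.14 μM final.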

T1 sequence (P05771 1-673 isoform P05771-2): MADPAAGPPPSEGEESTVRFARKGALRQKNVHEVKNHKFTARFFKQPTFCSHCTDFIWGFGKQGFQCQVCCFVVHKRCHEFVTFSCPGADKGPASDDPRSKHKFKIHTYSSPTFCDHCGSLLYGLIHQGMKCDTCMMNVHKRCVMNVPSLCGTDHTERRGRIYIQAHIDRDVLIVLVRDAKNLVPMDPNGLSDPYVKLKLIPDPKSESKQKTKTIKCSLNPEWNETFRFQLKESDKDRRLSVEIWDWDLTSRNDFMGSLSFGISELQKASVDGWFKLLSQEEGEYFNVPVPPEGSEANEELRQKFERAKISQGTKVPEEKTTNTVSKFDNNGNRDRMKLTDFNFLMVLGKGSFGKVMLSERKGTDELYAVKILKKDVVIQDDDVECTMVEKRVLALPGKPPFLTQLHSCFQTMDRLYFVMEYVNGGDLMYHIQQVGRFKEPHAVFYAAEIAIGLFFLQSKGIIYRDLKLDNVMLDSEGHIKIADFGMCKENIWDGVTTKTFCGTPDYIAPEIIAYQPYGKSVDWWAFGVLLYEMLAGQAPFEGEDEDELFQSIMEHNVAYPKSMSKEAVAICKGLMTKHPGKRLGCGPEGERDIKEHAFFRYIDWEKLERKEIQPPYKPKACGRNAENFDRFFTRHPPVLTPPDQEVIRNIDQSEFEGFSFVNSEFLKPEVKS

| inhibition at 1.14 µM [%] | Compound |
| --- | --- |
| 72 | Cc1n[nH]c2nc(-c3ccc(O)cc3)cc(C(=O)N[C@H]3CC[C@@H](N)CC3)c12 [Example 103, 6-(4-Hydroxy-phenyl)-3-methyl-1H-pyrazolo[3,4-b]pyridine-4-carboxylic acid (cis-4-amino-cyclohexyl)-amide] |
| 91 | Cc1n[nH]c2nc(-c3ccc(O)cc3)cc(C(=O)N3CC(C(C)(C)N)C3)c12 [Example 33, [3-(1-Amino-1-methyl-ethyl)-azetidin-1-yl]-[6-(4-hydroxy-phenyl)-3-methyl-1H-pyrazolo[3,4-b]pyridin-4-yl]-methanone] |
| 79 | CN[C@H]1CN(C(=O)c2cc(-c3ccc(O)cc3)nc3[nH]nc(C)c23)CC[C@H]1C (racemic) [Example 229, [6-(4-Hydroxy-phenyl)-3-methyl-1H-pyrazolo[3,4-b]pyridin-4-yl]-(cis-4-methyl-3-methylamino-piperidin-1-yl)-methanone] |
| 81 | Cc1n[nH]c2nc(-c3ccc(O)cc3)cc(C(=O)NC3CNCC3C)c12 (stereo not drawn) [Example 43, 6-(4-Hydroxy-phenyl)-3-methyl-1H-pyrazolo[3,4-b]pyridine-4-carboxylic acid (4-methyl-pyrrolidin-3-yl)-amide] |
| 71 | C[C@@H]1CN(C(=O)c2cc(-c3ccc(O)cc3)nc3[nH]nc(C(F)(F)F)c23)CCN1 [Example 401, [6-(4-Hydroxy-phenyl)-3-trifluoromethyl-1H-pyrazolo[3,4-b]pyridin-4-yl]-((R)-3-methyl-piperazin-1-yl)-methanone] |
| 95 | Cc1n[nH]c2nc(-c3ccc(O)cc3)cc(C(=O)N3C[C@@H](C)N[C@@H](C)C3)c12 [Example 24, ((3R,5S)-3,5-Dimethyl-piperazin-1-yl)-[6-(4-hydroxy-phenyl)-3-methyl-1H-pyrazolo[3,4-b]pyridin-4-yl]-methanone] |
| 95 | Cc1n[nH]c2nc(-c3ccc(O)cc3)cc(C(=O)N3C[C@H](C)NC[C@H]3C)c12 (relative stereo) [Example 73, (trans-2,5-Dimethyl-piperazin-1-yl)-[6-(4-hydroxy-phenyl)-3-methyl-1H-pyrazolo[3,4-b]pyridin-4-yl]-methanone] |
| 86 | Cc1n[nH]c2nc(-c3ccc(O)cc3)cc(C(=O)N3CCC4(CCNC4)C3)c12 (stereo not drawn) [Example 256, (2,7-Diaza-spiro[4.4]non-2-yl)-[6-(4-hydroxy-phenyl)-3-methyl-1H-pyrazolo[3,4-b]pyridin-4-yl]-methanone] |
| 82 | Cc1n[nH]c2nc(-c3ccc(O)cc3)cc(C(=O)N3CCC4(CCNC4)CC3)c12 [Example 257, (2,8-Diaza-spiro[4.5]dec-8-yl)-[6-(4-hydroxy-phenyl)-3-methyl-1H-pyrazolo[3,4-b]pyridin-4-yl]-methanone] |
| 66 | Cc1n[nH]c2nc(-c3ccc(O)cc3)cc(C(=O)N3CCN(CCS(C)(=O)=O)CC3)c12 [Example 271, [6-(4-Hydroxy-phenyl)-3-methyl-1H-pyrazolo[3,4-b]pyridin-4-yl]-[4-(2-methanesulfonyl-ethyl)-piperazin-1-yl]-methanone] |
| 70 | CCCC1(N)CCN(C(=O)c2cc(-c3ccc(O)cc3)nc3[nH]nc(C)c23)C1 (stereo not drawn) [Example 47, (3-Amino-3-propyl-pyrrolidin-1-yl)-[6-(4-hydroxy-phenyl)-3-methyl-1H-pyrazolo[3,4-b]pyridin-4-yl]-methanone] |

The remaining lines, values behind:

| Compound | inhibition at 1.14 µM [%] |
| --- | --- |
| Cc1n[nH]c2nc(-c3ccc(O)cc3F)cc(C(=O)N3C[C@@H](C)NC[C@H]3C)c12 [Example 428, ((2R,5R)-2,5-Dimethyl-piperazin-1-yl)-[6-(2-fluoro-4-hydroxy-phenyl)-3-methyl-1H-pyrazolo[3,4-b]pyridin-4-yl]-methanone] | 35 |
| O=C(N[C@H]1CN2CCC1CC2)c1cc(-c2ccc(O)cc2)nc2[nH]nc(C(F)(F)F)c12 [Example 413, 6-(4-Hydroxy-phenyl)-3-trifluoromethyl-1H-pyrazolo[3,4-b]pyridine-4-carboxylic acid [(R)-1-aza-bicyclo[2.2.2]oct-3-yl]-amide] | 29 |
| Cc1n[nH]c2nc(-c3ccc(O)cc3)cc(C(=O)NCC3CCC(=O)N3)c12 (stereo not drawn) [Example 278, 6-(4-Hydroxy-phenyl)-3-methyl-1H-pyrazolo[3,4-b]pyridine-4-carboxylic acid (5-oxo-pyrrolidin-2-ylmethyl)-amide] | 68 |
| CCC[C@@H]1CN(C(=O)c2cc(-c3ccc(O)cc3F)nc3[nH]nc(C)c23)[C@@H](C)CN1 [Example 448, [6-(2-Fluoro-4-hydroxy-phenyl)-3-methyl-1H-pyrazolo[3,4-b]pyridin-4-yl]-((2S,5R)-2-methyl-5-propyl-piperazin-1-yl)-methanone] | 99 |
| Cc1cc(O)ccc1-c1cc(C(=O)N2CCNCC2C(F)(F)F)c2c(C)n[nH]c2n1 (stereo not drawn) [Example 144, [6-(4-Hydroxy-2-methyl-phenyl)-3-methyl-1H-pyrazolo[3,4-b]pyridin-4-yl]-(2-trifluoromethyl-piperazin-1-yl)-methanone] | 82 |
| Cc1n[nH]c2nc(-c3ccc(O)cc3F)cc(C(=O)N3C[C@@H](C)N(CC4CCOCC4)C[C@@H]3C)c12 [Example 454, [(2S,5R)-2,5-Dimethyl-4-(tetra-hydro-pyran-4-yl-methyl)-piperazin-1-yl]-[6-(2-fluoro-4-hydroxy-phenyl)-3-methyl-1H-pyrazolo[3,4-b]pyridin-4-yl]-methanone] | 81 |
| CCN1CCCC(NC(=O)c2cc(-c3ccc(O)c(F)c3)nc3[nH]nc(C)c23)C1 (stereo not drawn) [Example 332, 6-(3-Fluoro-4-hydroxy-phenyl)-3-methyl-1H-pyrazolo[3,4-b]pyridine-4-carboxylic acid (1-ethyl-piperidin-3-yl)-amide] | 63 |
| Cc1n[nH]c2nc(-c3ccc(O)c(F)c3)cc(C(=O)N3C[C@]4(C)CN(C)C[C@](C)(C3)C4O)c12 (stereo partly drawn) [Example 334, [6-(3-Fluoro-4-hydroxy-phenyl)-3-methyl-1H-pyrazolo[3,4-b]pyridin-4-yl]-((1S,5R)-9-hydroxy-1,5,7-trimethyl-3,7-diaza-bicyclo[3.3.1]non-3-yl)-methanone] | 53 |
| CCc1n[nH]c2nc(-c3ccc(O)cc3)cc(C(=O)N3CCC4(CCNC4)C3)c12 (stereo not drawn) [Example 172, (2,7-Diaza-spiro[4.4]non-2-yl)-[3-ethyl-6-(4-hydroxy-phenyl)-1H-pyrazolo[3,4-b]pyridin-4-yl]-methanone] | 67 |
| COC[C@H]1CN(C(=O)c2cc(-c3ccc(O)c(F)c3)nc3[nH]nc(C)c23)CCN1 [Example 298, [6-(3-Fluoro-4-hydroxy-phenyl)-3-methyl-1H-pyrazolo[3,4-b]pyridin-4-yl]-((R)-3-methoxymethyl-piperazin-1-yl)-methanone] | 68 |
| Cc1n[nH]c2nc(-c3ccc(O)cc3)cc(C(=O)N3CCNC[C@@H]3c3ccccc3)c12 [Example 27, [6-(4-Hydroxy-phenyl)-3-methyl-1H-pyrazolo[3,4-b]pyridin-4-yl]-((S)-2-phenyl-piperazin-1-yl)-methanone] | 95 |
| Cc1n[nH]c2nc(-c3ccc(O)cc3)cc(C(=O)NC(C)(C)C(C)(C)N)c12 [Example 134, 6-(4-Hydroxy-phenyl)-3-methyl-1H-pyrazolo[3,4-b]pyridine-4-carboxylic acid (2-amino-1,1,2-trimethyl-propyl)-amide] | 62 |
| Cc1n[nH]c2nc(-c3c(F)cc(O)cc3F)cc(C(=O)N3CCNCC3(C)C)c12 [Example 135, [6-(2,6-Difluoro-4-hydroxy-phenyl)-3-methyl-1H-pyrazolo[3,4-b]pyridin-4-yl]-(2,2-dimethyl-piperazin-1-yl)-methanone] | 96 |
| Cc1n[nH]c2nc(-c3ccc(O)cc3)cc(C(=O)NCCC(C)(C)N)c12 [Example 129, 6-(4-Hydroxy-phenyl)-3-methyl-1H-pyrazolo[3,4-b]pyridine-4-carboxylic acid (3-amino-3-methyl-butyl)-amide] | 69 |
| Cc1n[nH]c2nc(-c3ccc(O)c(F)c3)cc(C(=O)N3CCNC4CS(=O)(=O)CC43)c12 (stereo not drawn) [Example 296, (6,6-Dioxo-octahydro-6lambda6-thieno[3,4-b]pyrazin-1-yl)-[6-(3-fluoro-4-hydroxy-phenyl)-3-methyl-1H-pyrazolo[3,4-b]pyridin-4-yl]-methanone] | 32 |
| Cc1n[nH]c2nc(-c3ccc(O)cc3)cc(C(=O)NCC3CCCNC3)c12 (stereo not drawn) [Example 243, 6-(4-Hydroxy-phenyl)-3-methyl-1H-pyrazolo[3,4-b]pyridine-4-carboxylic acid (piperidin-3-ylmethyl)-amide] | 78 |
